Source: the supplement of paper PMC10920090

Columns and labels:
MDA-MB-231 [1] = experiment: drug sensitivity score (DSS), cytotoxicity CellTox Green; higher = more cytotoxic; extreme values may be limits of the assay; settings: 72 h
MDA-MB-231 [2] = experiment: drug sensitivity score (DSS), cell viability CellTiter-Glo; higher = more sensitive; extreme values may be limits of the assay; settings: 72 h
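Throughout, for drug sensitivity score (DSS), cytotoxicity CellTox Green: DSS summarises each dose–response curve by combining IC50, EC50, maximal inhibition and efficacy across drug concentrations.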

| Compound | drug sensitivity score (MDA-MB-231 [1]; shRNA: shPPFIA1_1) | drug sensitivity score (MDA-MB-231 [1]; shRNA: shScramble) | drug sensitivity score (MDA-MB-231 [2]; shRNA: shPPFIA1_1) | drug sensitivity score (MDA-MB-231 [2]; shRNA: shScramble) |
| --- | --- | --- | --- | --- |
| COC[C@H](NC(=O)c1cnc(C)s1)C(=O)N[C@@H](COC)C(=O)N[C@@H](Cc1ccccc1)C(=O)[C@@]1(C)CO1 [Oprozomib] | 17 DSS | 16.8 DSS | 11.4 DSS | 11.5 DSS |
| Cc1[nH]c(/C=C2\C(=O)Nc3ccccc32)c(C)c1CCC(=O)O [Orantinib] | 10.8 DSS | 16.2 DSS | 0 DSS | 0 DSS |
| CNC(=O)c1ccc2cc([C@@]3(O)CCn4cncc43)ccc2c1 [Orteronel] | 0 DSS | 0 DSS | 0 DSS | 0 DSS |
| C=CC(=O)Nc1cc(Nc2nccc(-c3cn(C)c4ccccc34)n2)c(OC)cc1N(C)CCN(C)C [Osimertinib] | 0 DSS | 0 DSS | 1.2 DSS | 3.9 DSS |
| O=C(O)C(=O)O.[NH-][C@@H]1CCCC[C@H]1[NH-].[Pt+2] [Oxaliplatin] | 0 DSS | 0 DSS | 0 DSS | 2 DSS |
| C=CCc1cccc(/C=N/NC(=O)CN2CCN(Cc3ccccc3)CC2)c1O [PAC-1] | 0 DSS | 0 DSS | 2.7 DSS | 3.8 DSS |
| O=C(Nc1cccnc1)N1CCC(Cc2cccc(Oc3ccc(C(F)(F)F)cn3)c2)CC1 [PF-3845] | 4 DSS | 0.3 DSS | 4.3 DSS | 4 DSS |
| COc1ccccc1S(=O)(=O)Nc1ccc2c(c1)CN(C)C(=O)N2 [PFI-1] | 0 DSS | 0 DSS | 1.4 DSS | 4.4 DSS |
| CN1CCN(c2cc(C(=O)Nc3ccc4c(c3)-c3c(c(C(N)=O)nn3-c3ccc(F)cc3)CC4)c(Cl)cn2)CC1 [PHA 408] | 5.2 DSS | 6.9 DSS | 4.2 DSS | 6.3 DSS |
| CCn1nnc2c(N3CCOCC3)nc(-c3ccc(NC(=O)Nc4ccc(C(=O)N5CCN(C)CC5)cc4)cc3)nc21 [PKI-402] | 0 DSS | 0 DSS | 1.1 DSS | 9.4 DSS |
| O=C(Nc1cc(Cl)cc2c1[nH]c1cnccc12)c1cccnc1 [PS-1145] | 0 DSS | 0.3 DSS | 0.9 DSS | 0.9 DSS |
| COc1cc(Br)c(Nc2nc(-c3c(C)nc4ncccn34)cs2)c(Br)c1 [PTC-209] | 0 DSS | 0 DSS | 0 DSS | 7.5 DSS |
| CC(=O)O[C@H]1C(=O)[C@@]2(C)[C@H]([C@H](OC(=O)c3ccccc3)[C@]3(O)C[C@H](OC(=O)[C@H](O)[C@@H](NC(=O)c4ccccc4)c4ccccc4)C(C)=C1C3(C)C)[C@]1(OC(C)=O)CO[C@@H]1C[C@@H]2O [Paclitaxel] | 8.8 DSS | 9.2 DSS | 0 DSS | 12.8 DSS |
| C1=N/C2=N/c3ccc(OCCN4CCCC4)c(c3)COC/C=C/COCc3cccc(c3)C(=C1)N2 [Pacritinib] | 1.6 DSS | 0.6 DSS | 2.4 DSS | 6.2 DSS |
| CC(=O)c1c(C)c2cnc(Nc3ccc(N4CCNCC4)cn3)nc2n(C2CCCC2)c1=O [Palbociclib] | 0 DSS | 0 DSS | 0 DSS | 2.4 DSS |
| COc1ccc(COc2cc3oc(=O)c4cc(C(C)O)ccc4c3cc2OC)cc1 (centres undefined) [Palomid-529] | 0 DSS | 0 DSS | 0 DSS | 0 DSS |

| Compound | drug sensitivity score (MDA-MB-231 [1]; shRNA: shPPFIA1_1) | drug sensitivity score (MDA-MB-231 [1]; shRNA: shScramble) | drug sensitivity score (MDA-MB-231 [2]; shRNA: shPPFIA1_1) | drug sensitivity score (MDA-MB-231 [2]; shRNA: shScramble) |
| --- | --- | --- | --- | --- |
| Cc1[nH]c2ccccc2c1CCNCc1ccc(/C=C/C(=O)NO)cc1 [Panobinostat] | 11.6 DSS | 11.4 DSS | 10.9 DSS | 14 DSS |
| C/C(=C\c1csc(C)n1)[C@@H]1C[C@@H]2O[C@]2(C)CCC[C@H](C)[C@H](O)[C@@H](C)C(=O)C(C)(C)[C@@H](O)CC(=O)O1 [Patupilone] | 8.3 DSS | 5.8 DSS | 0 DSS | 12.3 DSS |
| Cc1ccc(Nc2nccc(N(C)c3ccc4c(C)n(C)nc4c3)n2)cc1S(N)(=O)=O [Pazopanib] | 0 DSS | 0 DSS | 2.7 DSS | 7.9 DSS |
| CCOc1cc2ncc(C#N)c(Nc3ccc(F)c(Cl)c3)c2cc1NC(=O)/C=C/CN(C)C [Pelitinib] | 2.7 DSS | 0 DSS | 14.9 DSS | 21.1 DSS |
| Nc1nc2[nH]cc(CCc3ccc(C(=O)N[C@@H](CCC(=O)O)C(=O)O)cc3)c2c(=O)[nH]1 [Pemetrexed] | 0 DSS | 0 DSS | 5.6 DSS | 8.3 DSS |
| OC[C@H]1O[C@@H](n2cnc3c2N=CNC[C@H]3O)C[C@@H]1O [Pentostatin] | 0 DSS | 0 DSS | 0.5 DSS | 0.2 DSS |
| CCCCCCCCCCCCCCCCCCOP(=O)([O-])OC1CC[N+](C)(C)CC1 [Perifosine] | 0.9 DSS | 0 DSS | 0 DSS | 0.9 DSS |
| NS(=O)(=O)OC[C@@H]1C[C@@H](n2ccc3c(N[C@H]4CCc5ccccc54)ncnc32)C[C@@H]1O [Pevonedistat] | 7.6 DSS | 7 DSS | 16.9 DSS | 10.6 DSS |
| FC(F)(F)c1ccc(CNc2ccc(Cc3c[nH]c4ncc(Cl)cc34)cn2)cn1 [Pexidartinib] | 0 DSS | 0 DSS | 0 DSS | 0 DSS |
| CS(=O)(=O)N1CCN(Cc2cc3nc(-c4cccc5[nH]ncc45)nc(N4CCOCC4)c3s2)CC1 [Pictilisib] | 0 DSS | 0 DSS | 0 DSS | 2.9 DSS |
| COc1ccc(Cl)c(Nc2nc3ccccc3nc2NS(=O)(=O)c2cccc(NC(=O)C(C)(C)N)c2)c1 [Pilaralisib] | 0.9 DSS | 0 DSS | 0 DSS | 0.9 DSS |
| CC[C@@H]1C(=O)OC[C@@H]1Cc1cncn1C [Pilocarpine] | 0 DSS | 0 DSS | 0 DSS | 0 DSS |
| CC(C)N(C[C@H]1O[C@@H](n2cnc3c(N)ncnc32)[C@H](O)[C@@H]1O)[C@H]1C[C@@H](CCc2nc3cc(C(C)(C)C)ccc3[nH]2)C1 [Pinometostat] | 0 DSS | 0 DSS | 0 DSS | 0 DSS |
| O=C(CCBr)N1CCN(C(=O)CCBr)CC1 [Pipobroman] | 0 DSS | 0 DSS | 0 DSS | 0 DSS |
| NCCNc1ccc(NCCN)c2c1C(=O)c1ccncc1C2=O [Pixantrone] | 0 DSS | 0 DSS | 3.1 DSS | 0.4 DSS |
